Values joined by “and” are separate entries in the source; they are usually repeats but may differ in a detail not shown here. Identical values can stand only once.
Columns and labels:
Format in all cases: cell-based
[1] = test system: human embryonic stem cells (H9 or H1 lines); assay: Plate reader (MTS) proliferation assay; details: for activity at 10 µM: Homo sapiens, Embryonic stem cell, 96 h; for activity at 10 µM / % Control Value (proliferation): 10 μM test compound with 100 ng/ml activin A on days 1-2, MTS OD490 on day 4, vs Activin A/Wnt3a positive control, strong and moderate hits; for Average: average of replicate raw data; for Raw Data: replicate wells, plate reader proliferation screen of GSK-3B inhibitors; for Average (of Raw Data): plate reader raw signal, mean of replicate wells
How it was run: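 H9 or H1 cells on Matrigel, washed, then given DMEM:F12 with 0.5% FCS, 100 ng/ml activin A and 10 μM compound (days 1–2), then 2% FCS plus activin A (days 3–4). MTS added day 4, OD490 read after 1.5–4 h at 37 °C; triplicates as percent of activin A/Wnt3a control.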

[2] = test system: human embryonic stem cells (H9 line); assay: High content screening assay: cell number (proliferative response); details: for fold induction at 10 µM: Homo sapiens, Embryonic stem cell, read-out: Proliferative Response, Fold over Wnt 3a/AA control
How it was run: (§1)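 H9 hESCs on MATRIGEL treated days 1-2 with 10 μM compound in DMEM:F12, 0.5% FCS, 100 ng/ml activin A; days 3-4 with 2% FCS plus activin A without compound. Fixed cells immunostained for Sox17 or HNF-3beta with Draq5 nuclear counterstain. Cell number and staining intensity quantified by high-content imaging, 12 fields/well.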

[3] = test system: HNF-3beta expression in human embryonic stem cells (H9 line); assay: High content screening assay: HNF-3beta protein expression (differentiation); details: for HNF-3b Expression Fold over Wnt 3a/AA control: total intensity normalised to Wnt 3a/AA control
How it was run: as §1

[4] = cell number in the wells analysed for HNF-3b expression
[5] = cell number in the wells analysed for SOX-17 expression
[6] = 10 μM test compound with 100 ng/ml activin A on days 1-2, H9, total cell number by IN Cell Analyzer, strong and moderate hits
[7] = cell number in the wells analysed for HNF-3b expression, normalised to Wnt 3a/AA control
[8] = cell number in the wells analysed for SOX-17 expression, normalised to Wnt 3a/AA control
[9] = 10 μM test compound with 100 ng/ml activin A on days 1-2, H9, total intensity by IN Cell Analyzer, strong and moderate hits
[10] = relative to AA/Wnt3a/DMSO positive control (100.0) of the same plate
[11] = proliferation of human embryonic stem cells
[12] = proliferation of human embryonic stem cells, AA/Wnt3a = 100.0, no cells = 0.0

| SMILES | activity at 10 µM [1] [%] | Average [1] | Proliferative Response Total cells [2, 4] | Proliferative Response Total cells [2, 5] | HNF-3b Expression Total Intensity [3] | fold induction at 10 µM [2, 6] | % Control Value (proliferation) [1] [%] | Raw Data [1] | Proliferative Response Fold over Wnt 3a/AA control [2, 7] [fold] | Proliferative Response Fold over Wnt 3a/AA control [2, 8] [fold] | HNF3β Expression, Fold over Wnt 3a/AA control [3, 9] | HNF-3b Expression Fold over Wnt 3a/AA control [3] [fold] | Proliferative Response Fold over Wnt 3a/AA control [2, 6] | % Control [1, 10] [%] | Average (of Raw Data) [1, 11] | % Control [1, 12] [%] | fold induction at 10 µM ([3]; Homo sapiens, Embryonic stem cell, 10 μM test compound with 100 ng/ml activin A on days 1-2, H9, total intensity by IN Cell Analyzer, strong and moderate hits, read-out: HNF3β Expression, Fold over Wnt 3a/AA control) |
| --- | --- | --- | --- | --- | --- | --- | --- | --- | --- | --- | --- | --- | --- | --- | --- | --- | --- |
| CN(C)c1cccc(-n2cc(C3=C(c4nn(CCO)c5ccccc45)C(=O)NC3=O)c3ccccc32)c1 [Compound 145, 3-{1-[3-(Dimethylamino)phenyl]-1H-indol-3-yl}-4-[1-(2-hydroxyethyl)-1H-indazol-3-yl]-1H-pyrrole-2,5-dione] | 61.1 | 0.9191 | 2907 | 4914 | 82808745 |  |  |  |  |  |  |  |  |  |  |  |  |
| CN(C)c1ccc(-n2cc(C3=C(c4nn(CCO)c5ccccc45)C(=O)NC3=O)c3cc(Cl)ccc32)cn1 [Compound 148, 3-{5-Chloro-1-[6-(dimethylamino)pyridin-3-yl]-1H-indol-3-yl}-4-[1-(2-hydroxyethyl)-1H-indazol-3-yl]-1H-pyrrole-2,5-dione] | 106 | 1.4937 | 6536 | 12243 | 248855000 | 0.799 |  |  |  |  |  |  |  |  |  |  |  |
| COC(=O)c1cncc(-n2cc(C3=C(c4nn(CCO)c5ccccc45)C(=O)NC3=O)c3cc(Cl)ccc32)c1 [Compound 150, Methyl 5-(5-chloro-3-{4-[1-(2-hydroxyethyl)-1H-indazol-3-yl]-2,5-dioxo-2,5-dihydro-1H-pyrrol-3-yl}-1H-indol-1-yl)pyridine-3-carboxylate] | 63.3 | 0.9475 | 6992 | 7958 | 288075000 |  |  |  |  |  |  |  |  |  |  |  |  |
| OCCC#Cc1nc(-c2ccc(F)cc2)c(-c2ccncc2)n1CCCc1ccccc1 [Compound 158, 4-[4-(4-Fluorophenyl)-1-(3-phenylpropyl)-5-pyridin-4-yl-1H-imidazol-2-yl]but-3-yn-1-ol] | 84.7 | 1.2242 | 6058 | 6376 | 269025000 |  |  |  |  |  |  |  |  |  |  |  |  |
| O=C1NC(=O)C2=C1c1cn(c3ccccc13)CCOCCOCCOCCn1cc2c2ccccc21 [Compound 163, 6,7,9,10,12,13,15,16-Octahydro-23H-5,26:17,22-di(metheno)dibenzo[k,q]pyrrolo[3,4-n][1,4,7,10,19]trioxadiazacyclohenicosine-23,25(24H)-dione] |  | 1.3242 | 5485 | 1313 | 85245671 |  | 142.3 | 1.3764 and 1.2753 and 1.3208 | 4.327 | 0.7864 | 3.1115 Fold over Wnt 3a/AA control | 3.1115 |  |  |  |  |  |
| O=C1NC(=O)C2=C1c1cn(c3ccccc13)CCOCCOCCn1cc2c2ccccc21 [Compound 164, 6,7,9,10,12,13-Hexahydro-20H-5,23:14,19-di(metheno)dibenzo[h,n]pyrrolo[3,4-k][1,4,7,16]dioxadiazacyclooctadecine-20,22(21H)-dione] |  | 0.6350 | 67 | 12 | 1300640 |  | 68.2 | 0.6923 and 0.5994 and 0.6134 | 0.05259 | 0.007385 |  | 0.0475 |  |  |  |  |  |
| O=C1NC(=O)C2=C1c1cn(c3ccccc13)CCOCCOCCOCCOCCn1cc2c2ccccc21 [Compound 165, 10,11,13,14,16,17,19,20,22,23-Decahydro-1H-9,4:24,29-di(metheno)dibenzo[n,t]pyrrolo[3,4-q][1,4,7,10,13,22]tetraoxadiazacyclotetracosine-1,3(2H)-dione] |  | 1.8175 | 7460 | 2899 | 149772525 |  | 195.3 | 1.7896 and 1.4721 and 2.1908 | 5.885 | 1.736 | 5.4668 Fold over Wnt 3a/AA control | 5.4668 | 5.8846 Fold over Wnt 3a/AA control |  |  |  |  |
| O=C(Nc1ccc(C(=O)N2CC3CSCCN3Cc3ccccc32)c(Cl)c1)c1cc(Cl)cc(Cl)c1 (stereo not drawn) [Compound 166, 3,5-Dichloro-N-[3-chloro-4-(3,4,12,12a-tetrahydro-1H-[1,4]thiazino[3,4-c][1,4]benzodiazepin-11(6H)-ylcarbonyl)phenyl]benzamide] | 180 | 1.6794 | 787 | 562 | 10743082 | 0.621 |  |  |  |  |  |  |  |  |  |  |  |
| O=C1NC(=O)C2=C1c1cn(c3ncccc13)CCOCCOCCOCCOCCOCCn1cc2c2cccnc21 [Compound 168, 10,11,13,14,16,17,19,20,22,23,25,26-Dodecahydro-1H-9,4:27,32-di(metheno)dipyrido[2,3-q:3′,2′-w]pyrrolo[3,4-t][1,4,7,10,13,16,25]pentaoxadiazacycloheptacosine-1,3(2H)-dione] |  | 0.3421 | 57 | 118 | 2584708 |  |  | 0.3702 and 0.3193 and 0.3368 | 0.04523 | 0.07046 |  | 0.0943 |  | 36.8 |  |  |  |
| O=C1NC(=O)C2=C1c1cn(c3ncccc13)CCOCCOCCOCCOCCn1cc2c2cccnc21 [Compound 169] |  | 0.7138 |  |  |  |  | 76.7 | 0.5876 and 0.6384 and 0.9154 |  |  | 0.9520 Fold over Wnt 3a/AA control |  | 1.0764 Fold over Wnt 3a/AA control |  | 0.3354 | 24.4 |  |
| CN(C)CCCn1cc(C2=C(c3cccc4ccccc34)C(=O)NC2=O)c2cccnc21 [Compound 175, 3-{1-[3-(Dimethylamino)propyl]-1H-pyrrolo[2,3-b]pyridin-3-yl}-4-naphthalen-1-yl-1H-pyrrole-2,5-dione] |  | 0.1467 | 42 | 1 | 1605538 |  |  |  |  |  |  |  |  |  |  |  |  |
| O=C1NC(=O)C2=C1c1cn(c3ncccc13)CCOCCOCCn1cc2c2cccnc21 [Compound 180, 6,7,9,10,12,13-Hexahydro-20H-5,23:14,19-di(metheno)dipyrido[2,3-h:3′,2′-n]pyrrolo[3,4-k][1,4,7,16]dioxadiazacyclooctadecine-20,22(21H)-dione] |  | 0.1247 | 4 | 3 | 101114 |  |  | 0.1239 and 0.1233 and 0.1269 | 0.003155 | 0.001796 |  | 0.0037 |  | 13.4 | 0.3793 | 29.3 |  |
| O=C1NC(=O)C(c2cn(CCCO)c3ncccc23)=C1c1cn(CCCO)cn1 [Compound 182, 3-[1-(3-Hydroxypropyl)-1H-imidazol-4-yl]-4-[1-(3-hydroxypropyl)-1H-pyrrolo[2,3-b]pyridin-3-yl]-1H-pyrrole-2,5-dione] |  | 0.2828 | 425 | 20 | 8880858 |  |  |  |  |  |  |  |  |  |  |  |  |
| O=C1NC(=O)C(c2cn(CCCO)c3ncccc23)=C1c1cn(CCO)cn1 [Compound 183, 3-[1-(2-Hydroxyethyl)-1H-imidazol-4-yl]-4-[1-(3-hydroxypropyl)-1H-pyrrolo[2,3-b]pyridin-3-yl]-1H-pyrrole-2,5-dione] |  | 0.2321 | 5 | 7 | 170177 |  |  |  |  |  |  |  |  |  |  |  |  |
| O=C1NC(=O)C(c2cn(CCCO)c3ncccc23)=C1c1ccn(CCCO)n1 [Compound 185, 3-[1-(3-Hydroxypropyl)-1H-pyrazol-3-yl]-4-[1-(3-hydroxypropyl)-1H-pyrrolo[2,3-b]pyridin-3-yl]-1H-pyrrole-2,5-dione] |  | 0.2632 |  |  |  | 0.944 |  |  |  |  |  |  |  |  |  |  | 0.865 |
